{
  "source": "paper PMC9896599",
  "about": "“Biogenesis of flavor-related linalool is diverged and genetically conserved in tree peony (Paeonia × suffruticosa)” (Horticulture Research, 2022)",
  "type_in_all_cases": "biochemical",
  "conditions_in_all_cases": "10 uM GPP, 30 mM KCl, 5 mM MgCl2, 1 mM MnCl2, 50 mM HEPES pH 7.5, 30 °C, 1 h",
  "key": {"PdTPS4": {"molecular_target": "T1, PdTPS4 (Paeonia delavayi, UniProt A0A9E8GE34)", "T1 construct": "full-length cDNA, C-terminal His6, E. coli Transetta (DE3), Ni-NTA purified; the five PdTPS are 553-600 residues, about 65 kDa; plastid-localized", "T1 sequence (A0A9E8GE34 entry or part of it)": "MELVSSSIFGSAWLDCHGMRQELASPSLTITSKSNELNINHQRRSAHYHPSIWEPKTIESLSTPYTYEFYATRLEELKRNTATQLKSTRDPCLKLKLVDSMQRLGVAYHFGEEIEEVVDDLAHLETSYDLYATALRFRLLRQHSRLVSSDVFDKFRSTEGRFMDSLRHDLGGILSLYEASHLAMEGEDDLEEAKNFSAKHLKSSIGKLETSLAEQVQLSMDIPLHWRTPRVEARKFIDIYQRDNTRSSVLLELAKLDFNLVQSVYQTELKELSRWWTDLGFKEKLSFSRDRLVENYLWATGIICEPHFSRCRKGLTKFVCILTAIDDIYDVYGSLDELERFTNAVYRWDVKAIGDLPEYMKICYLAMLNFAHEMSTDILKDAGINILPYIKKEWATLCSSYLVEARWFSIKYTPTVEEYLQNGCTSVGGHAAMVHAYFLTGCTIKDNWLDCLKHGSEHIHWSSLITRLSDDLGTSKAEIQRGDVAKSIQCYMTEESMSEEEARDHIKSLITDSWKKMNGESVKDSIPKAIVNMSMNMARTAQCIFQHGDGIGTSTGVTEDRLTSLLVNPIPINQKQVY", "assay": "GC-MS of headspace product (linalool)"}, "PdTPS3": {"molecular_target": "T2, PdTPS3 (Paeonia delavayi, UniProt A0A9E8G7R5)", "T2 construct": "full-length cDNA, C-terminal His6, E. coli Transetta (DE3), Ni-NTA purified; the five PdTPS are 553-600 residues, about 65 kDa; plastid-localized", "T2 sequence (A0A9E8G7R5 entry or part of it)": "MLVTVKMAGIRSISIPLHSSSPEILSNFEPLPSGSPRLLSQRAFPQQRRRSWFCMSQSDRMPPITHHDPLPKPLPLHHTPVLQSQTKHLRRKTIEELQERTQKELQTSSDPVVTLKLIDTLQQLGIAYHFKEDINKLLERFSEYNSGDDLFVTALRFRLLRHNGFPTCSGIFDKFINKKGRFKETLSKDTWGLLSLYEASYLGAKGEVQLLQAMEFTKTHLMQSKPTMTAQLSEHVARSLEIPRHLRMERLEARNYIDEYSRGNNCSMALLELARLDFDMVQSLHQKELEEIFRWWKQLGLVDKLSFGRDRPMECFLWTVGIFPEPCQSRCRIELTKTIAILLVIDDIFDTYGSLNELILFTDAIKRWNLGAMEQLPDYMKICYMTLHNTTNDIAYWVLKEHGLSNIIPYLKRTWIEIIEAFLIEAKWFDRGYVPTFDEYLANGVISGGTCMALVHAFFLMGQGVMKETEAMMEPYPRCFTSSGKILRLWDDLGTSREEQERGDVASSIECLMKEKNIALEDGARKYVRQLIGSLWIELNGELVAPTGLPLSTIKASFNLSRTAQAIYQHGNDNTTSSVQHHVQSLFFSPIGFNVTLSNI", "assay": "GC-MS of headspace product (geraniol)"}, "PdTPS1": {"molecular_target": "T3, PdTPS1 (Paeonia delavayi, UniProt A0A9E8GEC8)", "T3 construct": "full-length cDNA, C-terminal His6, E. coli Transetta (DE3), Ni-NTA purified; the five PdTPS are 553-600 residues, about 65 kDa; plastid-localized", "T3 sequence (A0A9E8GEC8 entry or part of it)": "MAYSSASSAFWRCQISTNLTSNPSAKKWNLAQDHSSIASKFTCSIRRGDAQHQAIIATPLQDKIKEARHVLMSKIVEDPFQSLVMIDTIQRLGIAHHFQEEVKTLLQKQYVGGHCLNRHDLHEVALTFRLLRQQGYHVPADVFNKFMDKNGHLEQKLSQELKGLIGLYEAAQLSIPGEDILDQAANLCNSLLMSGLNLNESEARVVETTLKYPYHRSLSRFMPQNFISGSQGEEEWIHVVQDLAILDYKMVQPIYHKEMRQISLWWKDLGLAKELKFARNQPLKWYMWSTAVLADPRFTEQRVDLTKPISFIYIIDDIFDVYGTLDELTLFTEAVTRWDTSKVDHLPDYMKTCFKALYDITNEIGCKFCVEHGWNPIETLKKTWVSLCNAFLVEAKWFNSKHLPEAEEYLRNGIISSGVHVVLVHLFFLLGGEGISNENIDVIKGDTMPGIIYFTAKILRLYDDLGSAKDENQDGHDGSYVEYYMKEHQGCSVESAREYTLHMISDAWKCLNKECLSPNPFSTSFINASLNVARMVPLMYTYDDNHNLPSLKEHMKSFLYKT", "assay": "GC-MS of headspace product (linalool)"}},
  "data": [
    {"compound": "CC(C)=CCC/C(C)=C/COP(=O)(O)OP(=O)(O)O", "note": "[GPP]", "values": [
      {"measurement": "GC-MS of headspace product (linalool)", "setting": "PdTPS4", "value": "both PdTPS1 and PdTPS4 catalyzed the formation of acyclic terpene alcohols with linalool"},
      {"measurement": "GC-MS of headspace product (geraniol)", "setting": "PdTPS3", "value": "The reaction products catalyzed by PdTPS3 with GPP formed geraniol rather than linalool"},
      {"measurement": "GC-MS of headspace product (linalool)", "setting": "PdTPS1", "value": "both PdTPS1 and PdTPS4 catalyzed the formation of acyclic terpene alcohols with linalool"}
    ]}
  ]
}
